Measured values from US20260041744A1, “Methods for Treating Pompe Disease” (Amicus Therapeutics, Inc., priority 2022, published 2026).

Tests used:
[1] = test system: adult subjects with late-onset Pompe disease (LOPD); test: Study ATB200-03 (PROPEL): PROMIS-Physical Function; assay type: in vivo, human; conditions: for CHG to Week 52 in PROMIS-Physical Function total score, LS Mean: MMRM, actual time point of assessments; for PROMIS-Physical Function Short Form 20a total score CHG, LS means (SE): Week 52, ANCOVA
Procedure: (§1) The test for the primary endpoint was conducted first at the 1-sided 0.025 significance level, and if significant, the ordered key secondary endpoints were similarly tested at the same significance level. The statistical significance of the key secondary endpoints was interpreted following a hierarchical testing order, each at the 1-sided alpha level of 0.025. […] Primary analyses of efficacy were performed using the mixed-effect model for repeated measures (MMRM) for 6MWD in Intent-to-treat Observed Population (ITT) that includes all available, observed data without any missing data imputation (ITT-OBS) and analysis of covariance (ANCOVA) for all other endpoints in the Intent-to-Treat-Last Observation Carried Forward (ITT-LOCF) Population. A nonparametric randomization based ANCOVA was specified as the first sensitivity analysis for 6MWD and FVC. […] For the purposes of data presentation in this document, 2-sided p-values are reported hereafter, except as otherwise noted.

[2] = test system: adult subjects with late-onset Pompe disease (LOPD); test: Study ATB200-03 (PROPEL): PROMIS-Fatigue; assay type: in vivo, human; conditions: for CHG to Week 52 in PROMIS-Fatigue total score, LS Mean: MMRM, actual time point of assessments, decrease indicates improvement; for PROMIS-Fatigue Short Form 8a total score CHG, LS means (SE): Week 52, ANCOVA
Procedure: as §1

[3] = test system: adult subjects with late-onset Pompe disease (LOPD); test: Study ATB200-03 (PROPEL): serum creatine kinase (CK); assay type: in vivo, human; conditions: combined study population
[4] = test system: adult subjects with late-onset Pompe disease (LOPD); test: Study ATB200-03 (PROPEL): urinary hexose tetrasaccharide (Hex4/Glc4); assay type: in vivo, human
[5] = test system: adult subjects with late-onset Pompe disease (LOPD); test: Study ATB200-03: global test and responder analyses on 6MWD, FVC, MMT; assay type: in vivo, human; conditions: change from baseline to Week 52
Text: To support the interpretation of clinical benefit, a composite subject-level response was defined based on the totality of the treatment outcome data. Subjects were classified by an ordinal response variable consisting of significant improvement, moderate improvement, or minor/no improvement based on treatment outcomes.
Thresholds for clinically relevant changes for 6MWD and FVC in Pompe specifically are not well established, however a large body of data exists from other neuromuscular and chronic respiratory diseases, especially interstitial pulmonary fibrosis (IPF). […] Accordingly, these thresholds were applied to analyses of Study ATB200-03 data.
Additional post hoc patient-level analyses were conducted using these thresholds for 6MWD (±6%) and FVC (±3%) separately and combined.

adult subjects with LOPD [6] = test: Study ATB200-07 (OLE of PROPEL): 6MWD and % predicted 6MWD; assay type: in vivo, human
Text: The study doses and schedule are maintained from Study ATB200-03.
Efficacy data are presented in this summary as change from the baseline of Study ATB200-03 (OLE-ES Population).

adult subjects with LOPD [7] = test: Study ATB200-07 (OLE): PROMIS-Physical Function; assay type: in vivo, human
Text: (§2) Analysis populations presented in this summary are 1) the OLE-ES Population (all subjects who satisfied the eligibility requirements (based on the inclusion and exclusion criteria) and entered Study ATB200-07 and 2) the OLE-FAS Population (all subjects who entered the OLE Study ATB200-07 who had both a valid ATB200-07 baseline and at least 1 post-baseline assessment for at least 1 of the 6 main efficacy endpoints [6MWD, sitting % predicted FVC, MMT-lower extremities, PROMIS-Physical Function, PROMIS-Fatigue, and GSGC]).

adult subjects with LOPD [8] = test: Study ATB200-07 (OLE): GSGC; assay type: in vivo, human
Text: as §2

[9] = test system: adult subjects with Pompe disease; test: Pooled Studies ATB200-02/03/07 (Pool 2): sitting % predicted FVC by exposure interval; conditions: exposure interval ≤15 months
Procedure: The pooled efficacy analyses presented within this section include the outlier (Pool 2). […] Pooled efficacy analyses excluding the outlier subject (Pool 2A) were also performed.
No long-term data for the alglucosidase alfa/placebo group are available, as all subjects switched to cipaglucosidase alfa/miglustat in Study ATB200-07.
Efficacy data from the 3 adult Pompe disease clinical studies were pooled and analyzed to further support the long-term efficacy of cipaglucosidase alfa/miglustat in adult subjects. Data from non-ambulatory subjects (Study ATB200-02 Cohort 2) were not included in the pool as there was little overlap of efficacy endpoints for this group with the various ambulatory groups, such as 6MWD and lower MMT.
The 3 adult Pompe disease clinical studies were pooled as follows: • The cipaglucosidase alfa/miglustat treatment group consists of: • All ambulatory subjects in Study ATB200-02 (Cohorts 1, 3, and 4), • All subjects randomized to the cipaglucosidase alfa/miglustat treatment group in Study ATB200-03, and • All subjects enrolled in Study ATB200-07. • The alglucosidase alfa/placebo treatment group consists of: • All subjects randomized to the ERT treatment group in Study ATB200-03.

[10] = ERT-naïve excluding Subject 4005-2511
[11] = ITT-OBS excluding Subject 4005-2511 (overall)
[12] = ITT-OBS excluding Subject 4005-2511, ERT-naïve Subjects
[13] = ITT-OBS, ERT-experienced Subjects
[14] = Week 52-LOCF, ERT-experienced Population
[15] = Week 52-LOCF, ERT-naïve Subjects excluding Subject 4005-2511
[16] = Week 52-LOCF, ITT excluding Subject 4005-2511
[17] = ITT-LOCF excluding Subject 4005-2511
[18] = ITT-LOCF, ERT-experienced Population
[19] = Week 52-LOCF, ERT-naïve Population excluding Subject 4005-2511
[20] = Excluding Subject 4005-2511, 2-sided p 0.010
[21] = ITT Population, 2-sided p 0.022
[22] = Study ATB200-03 baseline, OLE-ES Population excluding Subject 4005-2511
[23] = change from ATB200-03 baseline at Week 104, alglucosidase alfa/placebo group switched to cipaglucosidase alfa/miglustat at Week 52, OLE-ES excluding Subject 4005-2511

alglucosidase alfa [reference compound] was tested, and the “PROMIS-Physical Function Short Form 20a total score Absolute Value, Median” value ([1]; Baseline, ITT, ERT-naïve Subjects excluding Subject 4005-2511) was 67.00, the “PROMIS-Physical Function Short Form 20a total score Absolute Value, Mean” value ([1]; Baseline, ITT, ERT-naïve Subjects excluding Subject 4005-2511, score 20 to 100, higher = less impact) was 72.71 and the “mean (SD) change in PROMIS-Physical Function total score from baseline to Week 52” value ([1]; ERT-experienced Population) was 1.0 (11.20). For the same substance, the “mean (SD) change in PROMIS-Physical Function total score from baseline to Week 52” value [1, 10] was 5.1 (7.82), the “Change in PROMIS-Physical Function total score baseline to Week 52, LS means (SE) from ANCOVA” value ([1]; ITT-LOCF, ERT-naïve Subjects excluding Subject 4005-2511) was 6.96 (3.539) and the “CHG to Week 52 in PROMIS-Physical Function total score, LS Mean” value [1, 11] was −0.3. For the same substance, the “CHG to Week 52 in PROMIS-Physical Function total score, LS Mean” value [1, 12] was 5.8, the “CHG to Week 52 in PROMIS-Physical Function total score, LS Mean” value [1, 13] was −1.6 and the “PROMIS-Physical Function Short Form 20a total score Absolute Value, Mean (SD)” value [1, 14] was 65.90 (15.790). The “PROMIS-Physical Function Short Form 20a total score Absolute Value, Median” value [1, 14] was 66.00, the “PROMIS-Physical Function Short Form 20a total score CHG, Mean (SD)” value [1, 14] was −0.97 (11.196) and the “PROMIS-Physical Function Short Form 20a total score CHG, Median” value [1, 14] was −2.00. For the same substance, the “PROMIS-Physical Function Short Form 20a total score Absolute Value, Mean” value [1, 15] was 77.86, the “PROMIS-Physical Function Short Form 20a total score Absolute Value, Median” value [1, 15] was 80.00 and the “PROMIS-Physical Function Short Form 20a total score CHG (change from baseline), Mean” value [1, 15] was 5.14. For the same substance, the “PROMIS-Physical Function Short Form 20a total score CHG (change from baseline), Median” value [1, 15] was 5.00, the “PROMIS-Physical Function Short Form 20a total score Absolute Value, Mean (SD)” value [1, 16] was 68.16 (16.269) and the “PROMIS-Physical Function Short Form 20a total score Absolute Value, Median” value [1, 16] was 69.00. For the same substance, the “PROMIS-Physical Function Short Form 20a total score CHG, Mean (SD)” value [1, 16] was 0.19 (10.819), the “PROMIS-Physical Function Short Form 20a total score CHG, Median” value [1, 16] was −1.00 and the “PROMIS-Physical Function Short Form 20a total score CHG, LS means (SE)” value [1, 17] was 0.11 (1.406). The “PROMIS-Physical Function Short Form 20a total score CHG, LS means (SE)” value [1, 18] was −1.25 (1.587), the “mean (SD) change in PROMIS-Physical Function total score from baseline to Week 52” value ([1]; overall population) was 0.2 (10.82) and the “PROMIS-Fatigue Short Form 8a Total Score Absolute Value, Median” value ([2]; Baseline, ITT, ERT-naïve Population excluding Subject 4005-2511) was 24.00. For the same substance, the “PROMIS-Fatigue Short Form 8a Total Score Absolute Value, Mean” value ([2]; Baseline, ITT, ERT-naïve Population excluding Subject 4005-2511, score 8 to 40, lower = less fatigue) was 24.13, the “mean (SD) change in PROMIS-Fatigue total score from baseline to Week 52” value ([2]; ERT-experienced Population) was −0.5 (5.72) and the “mean (SD) change in PROMIS-Fatigue total score from baseline to Week 52” value [2, 10] was −5.4 (6.61). For the same substance, the “Change in PROMIS-Fatigue total score baseline to Week 52, LS means (SE) from ANCOVA” value ([2]; ITT-LOCF, ERT-naïve Population excluding Subject 4005-2511) was −6.28 (2.757), the “CHG to Week 52 in PROMIS-Fatigue total score, LS Mean” value [2, 11] was −1.7 and the “CHG to Week 52 in PROMIS-Fatigue total score, LS Mean” value [2, 12] was −4.9. For the same substance, the “CHG to Week 52 in PROMIS-Fatigue total score, LS Mean” value [2, 13] was −0.7, the “PROMIS-Fatigue Short Form 8a Total Score Absolute Value, Mean” value [2, 14] was 19.87 and the “PROMIS-Fatigue Short Form 8a Total Score Absolute Value, Median” value [2, 14] was 18.00. The “PROMIS-Fatigue Short Form 8a Total Score CHG, Mean” value [2, 14] was −0.50, the “PROMIS-Fatigue Short Form 8a total score CHG, Median” value [2, 14] was 0.50 and the “PROMIS-Fatigue Short Form 8a Total Score Absolute Value, Mean” value [2, 19] was 16.43. The “PROMIS-Fatigue Short Form 8a Total Score Absolute Value, Median” value [2, 19] was 15.00, the “PROMIS-Fatigue Short Form 8a Total Score CHG (change from baseline), Mean” value [2, 19] was −7.70 and the “PROMIS-Fatigue Short Form 8a Total Score CHG (change from baseline), Median” value [2, 19] was −6.90. The “PROMIS-Fatigue Short Form 8a Total Score Absolute Value, Median” value [2, 16] was 18.00, the “PROMIS-Fatigue Short Form 8a total score Absolute Value, Mean (SD)” value [2, 16] was 19.41 (6.735) and the “PROMIS-Fatigue Short Form 8a total score CHG, Mean (SD)” value [2, 16] was −1.67 (6.623). The “PROMIS-Fatigue Short Form 8a total score CHG, Median” value [2, 16] was −1.00, the “PROMIS-Fatigue Short Form 8a total score CHG, LS means (SE)” value [2, 17] was −1.94 (0.901) and the “PROMIS-Fatigue Short Form 8a total score CHG, LS means (SE)” value [2, 18] was −0.79 (0.953). The “mean (SD) change in PROMIS-Fatigue total score from baseline to Week 52” value ([2]; overall population) was -1.9 (0.90), the “mean change in CK after 52 weeks” value [3] was “+15.6%” and the “mean urinary Glc4 concentration at Week 52” value ([4]; ERT-experienced patients (baseline 4.6 and 7.2 mmol/mol)) was 9.1 mmol/mol. The “mean change in urine Hex-4 after 52 weeks” value ([4]; combined ERT switch and ERT naïve population) was “+11.0%”, the “Wilcoxon rank sum test on sum of ranks for 6MWD and % predicted FVC: Mean Score” value [5, 20] was 48.5 and the “Wilcoxon rank sum test on sum of ranks for 6MWD and % predicted FVC: Sum of Scores” value [5, 20] was 1793.5. For the same substance, the “Wilcoxon rank sum test on sum of ranks for 6MWD and FVC: Mean Score” value [5, 21] was 50.4, the “Wilcoxon rank sum test on sum of ranks for 6MWD and FVC: Sum of Scores” value [5, 21] was 1915.5 and the “6MWD, mean BSL” value (adult subjects with LOPD [6]; [22]) was 351.7 m. For the same substance, the “6MWD, mean 52-wk CFB” value (adult subjects with LOPD [6]; change from ATB200-03 baseline at Week 52 (= ATB200-07 baseline), OLE-ES excluding Subject 4005-2511) was 8.0 m, the “6MWD, mean 104-wk CFB” value (adult subjects with LOPD [6]; [23]) was 3.3 m and the “PROMIS-Physical Function, mean BSL” value (adult subjects with LOPD [7]; [22]) was 67.9. For the same substance, the “PROMIS-Physical Function, mean 52-wk CFB” value (adult subjects with LOPD [7]; change from ATB200-03 baseline at Week 52, OLE-ES excluding Subject 4005-2511) was 0.3, the “PROMIS-Physical Function, mean 104-wk CFB” value (adult subjects with LOPD [7]; [23]) was −0.4 and the “GSGC, mean BSL” value (adult subjects with LOPD [8]; [22]) was 14.3. The “GSGC, mean 52-wk CFB” value (adult subjects with LOPD [8]; change from ATB200-03 baseline at Week 52, decrease indicates improvement, OLE-ES excluding Subject 4005-2511) was 0.9, the “GSGC, mean 104-wk CFB” value (adult subjects with LOPD [8]; [23]) was 0.3 and the “Sitting % Predicted FVC Baseline, Mean” value ([9]; Pool 2, Efficacy Population including the outlier) was 70.04 % predicted. The “Sitting % Predicted FVC Baseline, Median” value ([9]; Pool 2, including the outlier) was 71.25 % predicted, the “sitting % predicted FVC change from baseline, median” value ([9]; Pool 2, including the outlier) was −3.00 % predicted and the “sitting % predicted FVC change from baseline, mean” value ([9]; last available post-baseline value − baseline, Pool 2, including the outlier) was −3.64 % predicted.
